The target in assay [1] is T1, IDO1 (Homo sapiens, UniProt P14902).
T1 construct: BxPC3 cells were seeded in phenol red-free RPMI 1640 medium; endogenous in cells; host or cells: BxPC3 cells stimulated with IFN-γ (50 ng/mL)
Nature of the assay: Kyn assay in BxPC-3 cells (Kyn levels after IFN-γ and Trp).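 As to all read-outs here: kyn levels expressed relative to DMSO-treated control cells.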 The class given is cell-based. As to conditions: for IC50: BxPC-3 cells incubated with IFN-γ, Trp and the compounds for 48 h, read-out: Kyn assay IC50 ± SD.
Description: BxPC3 cells were seeded in phenol red-free RPMI 1640 medium in 1536-well or 384-well plates (Greiner #782086, Corning #3770) 24 h prior to the addition of compounds, IFN-γ (50 ng/mL, PeproTech) and L-Trp (380 µM, Sigmal-Aldrich). After 48 h of incubation, first cell viability was accessed by the addition of Hoechst-33342. Afterwards, trichloroacetic acid (TCA, Sigma-Aldrich) was added to a final concentration of 7 % and incubated for 10 min prior to a centrifugation step of 10 min at 1620 × g. Kyn levels were determined by means of the Kyn sensor^7 at a final concentration of 17.5 µM in sensor buffer (50 mM H3PO4 and 120 mM NaCl (pH=1)). Fluorescence intensity (excitation: 535 nm, emission: 595 nm) was measured using a Spectramax Paradigm reader (Molecular Devices). Data were normalized to the values for cells that were treated with DMSO.
For the manual assay, BxPC3 or SKOV3 cells were seeded in clear 96-well or 384-well plates, respectively, 24 h prior to compound treatment and IFN-γ (50 or 5 ng/mL, respectively) and L-Trp (380 µM) addition as described before.^7 48 h after treatment, TCA was added and Kyn levels were detected by means of 2 % w/v of p-DMAB (Ehrlich reagent) in acetic acid as described by Braun et al^29. The absorbance of the Ehrlich reagent was detected at 492 nm and at 650 nm as background control was measured on Spark® multimode microplate plate reader (Tecan, Austria). Kyn levels were determined by subtracting the absorbance value at 650 nm and presented relative to the DMSO control. Dose-response curves and IC50 values were generated and fitted with GraphPad Prism 6.0 (GraphPad software, USA) using four-parameter variable slope non-linear regression curve fit.
Cells were incubated with IFN-γ, Trp and the compounds for 48 h prior to detection of Kyn levels.

The target of assay [2] is T1, IDO1. Description: IDO1 degradation in BxPC3 cells, IDO1 protein levels by immunoblotting.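 As to all read-outs here: IDO1 bands on Western blots detected with fluorescent dye-labelled secondary antibodies and quantified by band intensity, values are means of n biological replicates.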 The class given is cell-based. As to conditions: 50 ng/ml IFN-γ 24 h, washout, compound (100 nM) 24 h, maximum IDO1 degradation at 0.1 µM; for Dmax at 0.1 µM: BXPC-3, BxPC3 cells; for Dmax [%] (n): BxPC3 cells.
Description: To analyze IDO1 levels, IFN-γ-stimulated BxPC3 cells (50 ng/mL IFN-γ), U2OS cells (5 ng/mL IFN-γ), HEK^rhIDO1 (HEK293T cells electroporated with rhIDO1), SKOV3 and BT549 cells were treated with compounds for the indicated times (6 h to 24 h) followed by cell lysis (150 mM sodium chloride in 50 mM Tris (pH 8.0) and 1% NP-40 Alternative, protease and phosphatase inhibitors). Protein concentrations were determined (DC protein assay, Bio-Rad) followed by addition of 1 × SDS loading buffer and protein separation by a 10% SDS-PAGE. Separated protein samples were transferred to a polyvinylidene difluoride (PVDF) membrane using a wet-tank blotting system (Bio-Rad). IDO1 as well as vinculin as a loading were detected using the primary antibodies anti-IDO1 (ab211017, abcam or 14-9750-80, Thermo Fisher), anti-vinculin (V9131, Thermo Fisher) and anti-β-actin (ab8227, abcam) in 5 % milk in PBS-buffered saline with 0.05 % (v/v) Tween-20 (PBS-T). Primary antibodies were incubated at 4°C overnight and detected with IRDye-conjugated secondary antibodies (LI-COR Biosciences). IDO1 protein level in BT549 and SKOV3 cells was detected with HRP conjugated secondary antibody and SuperSignal™ West Dura Extended Duration Substrat (Thermo Fisher Scientific). Washing steps were performed with PBS-T. Protein bands were visualized by ChemiDoc™ MP (Bio-Rad) using a fluorescent readout. Band intensities were quantified using Image Lab software.
In order to differentiate between these different activities, we explored the modes of action of selected compounds in an in vitro assay employing recombinant human IDO1 (rhIDO1) monitoring enzymatic activity only, and we characterized the degradation efficiency by means of Western blotting, determining maximum degradation levels at 0.1µM (Dmax) and half maximum degradation concentration (DC50) (Table B-2). […] Data are mean values of n biological replicates. Dmax corresponds to maximum levels of IDO1 degradation at 0.1 µM.

The record followed here is patent EP4670717A1, “PYRROLIDINE-FUSED MYRTANOL DERIVATIVES AS INHIBITORS AND/OR DEGRADERS OF IDO1 UND USE THEREOF” (Max-Planck-Gesellschaft zur Förderung der Wissenschaften …, priority 2024, dated 2025).

T1 sequence (P14902 whole entry): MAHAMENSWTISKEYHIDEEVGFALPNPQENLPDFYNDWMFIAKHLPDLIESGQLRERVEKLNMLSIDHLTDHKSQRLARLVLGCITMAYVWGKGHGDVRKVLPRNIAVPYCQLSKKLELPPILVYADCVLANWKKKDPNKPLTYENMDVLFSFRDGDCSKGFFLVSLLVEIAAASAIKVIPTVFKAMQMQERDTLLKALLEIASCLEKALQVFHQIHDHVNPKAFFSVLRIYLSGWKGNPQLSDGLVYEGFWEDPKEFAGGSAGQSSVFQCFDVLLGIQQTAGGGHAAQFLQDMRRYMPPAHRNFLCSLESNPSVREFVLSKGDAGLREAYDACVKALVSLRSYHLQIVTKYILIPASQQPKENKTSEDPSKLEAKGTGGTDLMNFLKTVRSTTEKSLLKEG

`CC(C)(C)Cc1ccc(S(=O)(=O)N2C[C@H]3C[C@H]4C[C@H](C4(C)C)[C@@]3(COC(=O)Nc3ccc(I)cc3)C2)cc1` [compound 47, ((3aS,4R,6R,7aS)-5,5-dimethyl-2-((4-neopentylphenyl)sulfonyl)octahydro-3aH-4,6-methanoisoindol-3a-yl)methyl (4-iodophenyl)carbamate]: on IDO1 [1], the IC50 was 200 to 1000 nM. Same read-out and setting: for `CCC(C)(C)c1ccc(S(=O)(=O)N2C[C@H]3C[C@H]4C[C@H](C4(C)C)[C@@]3(COC(=O)Nc3ccc(I)cc3)C2)cc1` [compound 48, ((3aS,4R,6R,7aS)-5,5-dimethyl-2-((4-(tert-pentyl)phenyl)sulfonyl)octahydro-3aH-4,6-methanoisoindol-3a-yl)methyl (4-iodophenyl)carbamate] the value was less than 200 nM; for `CC1(C)[C@H]2C[C@@H]3CN(S(=O)(=O)c4ccc([Si](C)(C)C)cc4)C[C@]3(COC(=O)Nc3ccc(I)cc3)[C@@H]1C2` [compound 50, ((3aS,4R,6R,7aS)-5,5-dimethyl-2-((4-(trimethylsilyl)phenyl)sulfonyl)octahydro-3aH-4,6-methanoisoindol-3a-yl)methyl (4-iodophenyl)carbamate], 200 to 1000 nM. In the case of `COc1cc(C(C)(C)C)ccc1S(=O)(=O)N1C[C@H]2C[C@H]3C[C@H](C3(C)C)[C@@]2(COC(=O)Nc2ccc(I)cc2)C1` [compound 55, ((3aS,4R,6R,7aS)-2-((4-(tert-butyl)-2-methoxyphenyl)sulfonyl)-5,5-dimethyloctahydro-3aH-4,6-methanoisoindol-3a-yl)methyl (4-iodophenyl)carbamate], the IC50 on IDO1 [1] is less than 200 nM. Besides, at IDO1 [2], the maximal degradation (Dmax) at 0.1 µM fell in the range of 55 to 59% and the “Dmax [%] (n)” value is 59 ± 16 (3) %.

`CC(C)(C)c1ccc(S(=O)(=O)N2C[C@H]3C[C@H]4C[C@H](C4(C)C)[C@@]3(COC(=O)Nc3ccc(I)cc3)C2)c(I)c1` [compound 57, ((3aS,4R,6R,7aS)-2-((4-(tert-butyl)-2-iodophenyl)sulfonyl)-5,5-dimethyloctahydro-3aH-4,6-methanoisoindol-3a-yl)methyl (4-iodophenyl)carbamate]: the concentration for half-maximal inhibition (IC50) at IDO1 [1] is less than 200 nM. Also, at IDO1 [2], the Dmax at 0.1 µM was 55 to 59% and the “Dmax [%] (n)” value is 55 ± 5 (3) %. For the molecule `COCCOCC(C)(C)c1ccc(S(=O)(=O)N2C[C@H]3C[C@H]4C[C@H](C4(C)C)[C@@]3(COC(=O)Nc3ccc(I)cc3)C2)cc1` [compound 58, ((3aS,4R,6R,7aS)-2-((4-(1-(2-methoxyethoxy)-2-methylpropan-2-yl)phenyl)sulfonyl)-5,5-dimethyloctahydro-3aH-4,6-methanoisoindol-3a-yl)methyl (4-iodophenyl)carbamate], the IC50 at IDO1 [1] was less than 200 nM. As to `CC(C)(C(=O)N1CCOCC1)c1ccc(S(=O)(=O)N2C[C@H]3C[C@H]4C[C@H](C4(C)C)[C@@]3(COC(=O)Nc3ccc(I)cc3)C2)cc1` [compound 59, ((3aS,4R,6R,7aS)-5,5-dimethyl-2-((4-(2-methyl-1-morpholino-1-oxopropan-2-yl)phenyl)sulfonyl)octahydro-3aH-4,6-methanoisoindol-3a-yl)methyl (4-iodophenyl)carbamate], the IC50 at IDO1 [1] is 5000 to 10000 nM. Still for that read-out and setting: for `CN(C)C(=O)C(C)(C)c1ccc(S(=O)(=O)N2C[C@H]3C[C@H]4C[C@H](C4(C)C)[C@@]3(COC(=O)Nc3ccc(I)cc3)C2)cc1` [compound 60, ((3aS,4R,6R,7aS)-2-((4-(1-(dimethylamino)-2-methyl-1-oxopropan-2-yl)phenyl)sulfonyl)-5,5-dimethyloctahydro-3aH-4,6-methanoisoindol-3a-yl)methyl (4-iodophenyl)carbamate] the value was 200 to 1000 nM. Same read-out and setting: for `CN(C)CC(C)(C)c1ccc(S(=O)(=O)N2C[C@H]3C[C@H]4C[C@H](C4(C)C)[C@@]3(COC(=O)Nc3ccc(I)cc3)C2)cc1` [compound 61, ((3aS,4R,6R,7aS)-2-((4-(1-(dimethylamino)-2-methylpropan-2-yl)phenyl)sulfonyl)-5,5-dimethyloctahydro-3aH-4,6-methanoisoindol-3a-yl)methyl (4-iodophenyl)carbamate] the value was 1000 to 5000 nM; for `COC(=O)CC(C)(C)c1ccc(S(=O)(=O)N2C[C@H]3C[C@H]4C[C@H](C4(C)C)[C@@]3(COC(=O)Nc3ccc(I)cc3)C2)cc1` [compound 62, Methyl 3-(4-(((3aS,4R,6R,7aS)-3a-((((4-iodophenyl)carbamoyl)oxy)methyl)-5,5-dimethyloctahydro-2H-4,6-methanoisoindol-2-yl)sulfonyl)phenyl)-3-methylbutanoate], less than 200 nM. `CCOC(=O)C(C)(C)c1ccc(S(=O)(=O)N2C[C@H]3C[C@H]4C[C@H](C4(C)C)[C@@]3(COC(=O)Nc3ccc(I)cc3)C2)cc1` [compound 64, Ethyl 2-(4-(((3aS,4R,6R,7aS)-3a-((((4-iodophenyl)carbamoyl)oxy)methyl)-5,5-dimethyloctahydro-2H-4,6-methanoisoindol-2-yl)sulfonyl)phenyl)-2-methylpropanoate]: the IC50 at IDO1 [1] is 200 to 1000 nM. For `COC(=O)C(C)(C)c1ccc(S(=O)(=O)N2C[C@H]3C[C@H]4C[C@H](C4(C)C)[C@@]3(COC(=O)Nc3ccc(I)cc3)C2)c(OC)c1` [compound 66, Methyl 2-(4-(((3aS,4R,6R,7aS)-3a-((((4-iodophenyl)carbamoyl)oxy)methyl)-5,5-dimethyloctahydro-2H-4,6-methanoisoindol-2-yl)sulfonyl)-3-methoxyphenyl)-2-methylpropanoate], the half-maximal inhibitory concentration (IC50) on IDO1 [1] was less than 200 nM. Consider `COc1cc(C(C)(C)C(=O)O)ccc1S(=O)(=O)N1C[C@H]2C[C@H]3C[C@H](C3(C)C)[C@@]2(COC(=O)Nc2ccc(I)cc2)C1` [compound 67, 2-(4-(((3aS,4R,6R,7aS)-3a-((((4-iodophenyl)carbamoyl)oxy)methyl)-5,5-dimethyloctahydro-2H-4,6-methanoisoindol-2-yl)sulfonyl)-3-methoxyphenyl)-2-methylpropanoic acid], for which, at IDO1 [1], the IC50 is less than 200 nM. The molecule also showed a Dmax at 0.1 µM at IDO1 [2] of 0%. With `C#Cc1ccc(NC(=O)OC[C@]23CN(S(=O)(=O)c4ccc(C(C)(C)C(=O)O)cc4C)C[C@H]2C[C@H]2C[C@@H]3C2(C)C)cc1` [compound 75, 2-(4-(((3aS,4R,6R,7aS)-3a-((((4-ethynylphenyl)carbamoyl)oxy)methyl)-5,5-dimethyloctahydro-2H-4,6-methanoisoindol-2-yl)sulfonyl)-3-methylphenyl)-2-methylpropanoic acid], at IDO1 [1], the IC50 is less than 200 nM. For the same molecule, the “activity in the cell-based kynurenine assay” value at IDO1 [1] (result in words) is on record as “low nanomolar range”. Further, the Dmax at 0.1 µM at IDO1 [2] was determined as 27 ± 14%. Regarding `C#Cc1ccc(NC(=O)OC[C@]23CN(S(=O)(=O)c4ccc(C5(C(F)(F)F)N=N5)cc4)C[C@H]2C[C@H]2C[C@@H]3C2(C)C)cc1` [compound 76, ((3aS,4R,6R,7aS)-5,5-dimethyl-2-((4-(3-(trifluoromethyl)-3H-diazirin-3-yl)phenyl)sulfonyl)octahydro-3aH-4,6-methanoisoindol-3a-yl)methyl (4-ethynylphenyl) carbamate], on IDO1 [1], the IC50 is less than 200 nM.
